According to ChEMBL document CHEMBL3217625, “Syntheses of a new class of phenyl butyraldehyde-derived amines with in vitro trypanocide activities” (Medchemcomm, 2012):
Values belong to the molecule of their own block, whether it stands above or below them. Calls of active or inactive are those of the source. The rule behind the calls is not given here.

Tests used:
[1] = tested on: Trypanosoma cruzi; test: Antiparasitic activity against Trypanosoma cruzi strain CL Brener epimastigotes assessed as growth inhibition after 72 hrs by neubauer chamber analysis; type: functional, organism-based
[2] = tested on: HeLa; test: Cytotoxicity against human HeLa cells assessed as inhibition of cell proliferation at 5 ug/ml after 48 hrs by MTT assay; type: cell-based
[3] = target: T1, Trypanothione reductase (Trypanosoma cruzi, UniProt P28593); test: Time-dependent inhibition of Trypanosoma cruzi trypanothione reductase assessed as stabilization of enzyme-inhibitor complexes using TS2 as substrate by DTNB-coupled assay; details: read-out: Ki(app)
T1 sequence (P28593 whole entry): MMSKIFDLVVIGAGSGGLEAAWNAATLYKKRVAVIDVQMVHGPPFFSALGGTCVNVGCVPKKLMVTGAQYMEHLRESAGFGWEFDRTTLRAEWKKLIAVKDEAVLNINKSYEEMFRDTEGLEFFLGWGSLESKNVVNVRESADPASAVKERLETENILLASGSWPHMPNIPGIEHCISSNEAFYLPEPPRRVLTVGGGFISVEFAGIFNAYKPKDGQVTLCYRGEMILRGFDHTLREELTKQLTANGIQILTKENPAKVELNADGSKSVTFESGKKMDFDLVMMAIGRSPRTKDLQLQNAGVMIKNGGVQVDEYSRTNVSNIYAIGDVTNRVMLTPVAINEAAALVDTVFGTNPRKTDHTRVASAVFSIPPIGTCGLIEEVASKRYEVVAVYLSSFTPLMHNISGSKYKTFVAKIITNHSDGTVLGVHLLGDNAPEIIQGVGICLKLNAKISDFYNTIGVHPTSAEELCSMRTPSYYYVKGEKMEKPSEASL

[4] = target: T1, Trypanothione reductase; test: Time-dependent inhibition of Trypanosoma cruzi trypanothione reductase assessed as dissociation constants for enzyme-inhibitor binding using TS2 as substrate by DTNB-coupled assay; details: read-out: Ki(app)
[5] = target: Trypanothione reductase (Trypanosoma cruzi) (UniProt P28593); test: Time-dependent inhibition of Trypanosoma cruzi trypanothione reductase using TS2 as substrate by DTNB-coupled assay
Chain of Trypanothione reductase (Trypanosoma cruzi) (P28593 whole entry, looked up): as the sequence (P28593 whole entry) above

[6] = tested on: HeLa; test: Cytotoxicity against human HeLa cells assessed as inhibition of cell proliferation at 5 to 10 ug/ml after 48 hrs by MTT assay; type: cell-based
[7] = tested on: Trypanosoma cruzi; test: Antiparasitic activity against Trypanosoma cruzi strain CL Brener epimastigotes assessed as growth inhibition at 6 ug/ml after 72 hrs by neubauer chamber analysis in presence of 20 uM H2O2 (Rvb= 8%); type: functional
[8] = tested on: Trypanosoma cruzi; test: Antiparasitic activity against Trypanosoma cruzi strain CL Brener epimastigotes assessed as growth inhibition at 6 ug/ml after 72 hrs by neubauer chamber analysis in presence of 5 uM H2O2 (reference value: 0%); type: functional
[9] = target: Trypanothione reductase (Trypanosoma cruzi) (UniProt P28593); test: Reversible competitive slow-binding inhibition of Trypanosoma cruzi trypanothione reductase using TS2 as substrate by DTNB-coupled assay; details: TDE = time-dependent effect
[10] = tested on: Trypanosoma cruzi; test: Antiparasitic activity against Trypanosoma cruzi strain CL Brener epimastigotes assessed as growth inhibition at 6 ug/ml after 72 hrs by neubauer chamber analysis; type: functional; details: read-out: GI
[11] = tested on: Trypanosoma cruzi; test: Antiparasitic activity against Trypanosoma cruzi strain CL Brener epimastigotes assessed as growth inhibition at 4 ug/ml after 72 hrs by neubauer chamber analysis; type: functional; details: read-out: GI
[12] = tested on: Trypanosoma cruzi; test: Antiparasitic activity against Trypanosoma cruzi strain CL Brener epimastigotes assessed as growth inhibition at 4 ug/ml after 72 hrs by neubauer chamber analysis in presence of 5 uM H2O2 (reference value: 4%); type: functional
[13] = tested on: Trypanosoma cruzi; test: Antiparasitic activity against Trypanosoma cruzi strain CL Brener epimastigotes assessed as growth inhibition at 4 ug/ml after 72 hrs by neubauer chamber analysis in presence of 20 uM H2O2 (Rvb= 3%); type: functional
[14] = tested on: Trypanosoma cruzi; test: Antiparasitic activity against Trypanosoma cruzi strain CL Brener epimastigotes assessed as growth inhibition at 4 ug/ml after 72 hrs by neubauer chamber analysis in presence of 10 uM H2O2 (Rvb= 0%); type: functional
[15] = tested on: Trypanosoma cruzi; test: Antiparasitic activity against Trypanosoma cruzi strain CL Brener epimastigotes assessed as growth inhibition at 6 ug/ml after 72 hrs by neubauer chamber analysis in presence of 10 uM H2O2 (Rvb= 7%); type: functional

IC50 [1]: 19.8 µM
Structure (SMILES): C=CCc1cc(C)c(O)c(C)c1CCCCN(CCCCc1c(CC=C)cc(C)c(O)c1C)Cc1ccccc1
Activity [2]: Non-toxic

IC50 [1]: 183 µM
Structure (SMILES): C=CCc1cc(C)c(O)c(C)c1CCCCNCc1ccccc1

Structure (SMILES): O=C(Cn1ccnc1[N+](=O)[O-])NCc1ccccc1 [BENZNIDAZOLE]
IC50 [1]: 10 µM | Activity [2]: Non-toxic

IC50 [1]: 241 µM
Structure (SMILES): CCCNCCCc1ccccc1

IC50 [1]: 104 µM
Structure (SMILES): c1ccc(CCCNCc2ccccc2)cc1

IC50 [1]: 34.6 µM
Structure (SMILES): c1ccc(CCCN(CCCc2ccccc2)Cc2ccccc2)cc1

Structure (SMILES): Nc1nc(N)nc(Nc2ccc([As]=O)cc2)n1 (stereo not drawn) [MELARSEN OXIDE]
Ki [3]: 1.4 µM | Ki [4]: 18 µM

IC50 [1]: 10.1 µM | inhibition [5]: inactive
Structure (SMILES): Cc1cc(C)c(CCCCNCc2ccccc2)c(C)c1O
Activity [6]: Toxic

IC50 [1]: 55.8 µM
Structure (SMILES): CCCNCCCCc1c(C)cc(C)c(O)c1C

IC50 [1]: 18.6 µM
Structure (SMILES): CCCN(CCCc1ccccc1)CCCc1ccccc1
Activity [2]: Non-toxic

IC50 [1]: 485 µM
Structure (SMILES): Cc1cc(C)c(CCCC=O)c(C)c1O

Ki [3]: 37 µM | IC50 [1]: 8 µM | Ki [4]: 288 µM | inhibition [9]: tde
Structure (SMILES): Cc1cc(C)c(CCCCN(CCCCc2c(C)cc(C)c(O)c2C)Cc2ccccc2)c(C)c1O
growth inhibition (GI) [7]: 53% | growth inhibition (GI) [8]: 58% | Activity [2]: Non-toxic | inhibition of growth at 6 µg/mL [10]: 49% | inhibition of growth at 4 µg/mL [11]: 50% | growth inhibition (GI) [12]: 48% | growth inhibition (GI) [13]: 50% | growth inhibition (GI) [14]: 52% | growth inhibition (GI) [15]: 58%

Ki [3]: 114 µM | Ki [4]: 304 µM
Structure (SMILES): O=C1CC[C@]23/C=C/C(=O)NCCCCNCCCNC(=O)/C=C\c4ccc(c2c4)O[C@@H]3C1

IC50 [1]: 52.3 µM
Structure (SMILES): CCCN(CCCCc1c(C)cc(C)c(O)c1C)CCCCc1c(C)cc(C)c(O)c1C
